Measurements: ChEMBL document CHEMBL3045326, “Avocadofurans and their tetrahydrofuran analogues: comparison of growth inhibitory and insecticidal activity” (2000)
The source made the active and inactive calls. The rule behind the calls is not given here.

How the values were obtained:
Spodoptera exigua [1] = test: Insecticidal activity against Spodoptera exigua larvae assessed as inhibition of larval growth at 5 umol/g of diet administered through compound containing diet after 7 days; assay type: functional
Spodoptera exigua [2] = test: Insecticidal activity against older Spodoptera exigua larvae assessed per ug of diet; assay type: functional
Spodoptera exigua [3] = test: Insecticidal activity against young Spodoptera exigua larvae assessed per ug of diet; assay type: functional
Spodoptera exigua [4] = test: Insecticidal activity against Spodoptera exigua larvae assessed as induction of larval mortality at 5 umol/g of diet administered through compound containing diet after 7 days; assay type: functional, organism-based

SMILES	growth inhibition (GI) (Spodoptera exigua [1])	LC50 (Spodoptera exigua [2]) [µM]	LC50 (Spodoptera exigua [3]) [µM]	Activity (Spodoptera exigua [4])
CCCCCCCCCCCCCCCc1ccco1	98%	> 3	≥ 2	Active
CCCCCCCCCCCCCCC1CCCO1 (stereo not drawn)	inactive			
CCCCCCCCCCCCCCCCCc1ccco1 [2-(HEPTADECYL)FURAN]	93%	> 3	≥ 2	Active
CCCCCCCCCCCCCCCCCC1CCCO1 (stereo not drawn) [2-(HEPTADECYL)TETRAHYDROFURAN]	59%			
CCCCCCCCCCCCCCCCC1CCCO1 (stereo not drawn)	inactive			
CCCCCCCCCCCCCCCCCCC1CCCO1 (stereo not drawn)	Active			
CCCCCCCCCCCCCCCC1CCCO1 (stereo not drawn) [2-PENTADECYLTETRAHYDROFURAN]	45%			
